{"source": "patent US10874638B2", "about": "“Methods and compositions for modulating hormone levels” (priority 2014, dated 2020)", "key": {"[1]": {"system": "intact cynomolgus male and female monkeys", "test": "Intact cynomolgus monkey model", "format": "in vivo", "settings": "for serum cholesterol decrease, of the corresponding Day −3 values: males and females", "description": "Intact cynomolgus male and female monkeys are used to assess of the effects of the compositions provided herein or the individual SERM or SARM compounds on hypothalamic-pituitary-gonadal axis and lipid profile. All animals are dosed via oral or nasol gavage once daily for consecutive days with either vehicle or testing articles of different doses. The first day of dosing is designated Day 1 for all animals. Blood samples are collected for analysis of LH, FSH, T, Estrodiol, total cholesterol, triglycerides, cortisol, and coagulation parameters included prothrombin time (PT) and activated partial thromboplastin time on Days −3 and end of the study.\nIn this model, Compound 2 was dosed at 0, 5, 50, 150, and 450 mg/kg/day for 14 days. […] In a separate study, the compound was dosed at 0, 3, 10, 30, 120, and 500 mg/kg/day for 30 days. […] Serum testosterone was suppressed in males as indicated by lower 75th, 50th, and 25th percentile values in samples from treated monkeys than vehicle controls.\nIn this model, Compound 1 was dosed at 0, 1, 5, and 15 mg/kg/day for 3 months."}, "[2]": {"system": "orchidectomized male Sprague-Dawley rat", "test": "Orchidectomized mature male rat model"}, "[3]": {"system": "healthy young men", "settings": "cited from earlier work"}, "[4]": {"system": "ovariectomized mature female rats", "test": "Ovariectomized mature female rat model", "format": "in vivo", "settings": "restoration mode", "description": "Ovariectomized mature female rats are used to characterize primarily bone activity of the compositions provided herein or the individual SERM or SARM compounds. A sham group is used as control. The model can be run in either maintenance mode where the animals are dosed one day after the ovariectomy or restoration mode where the animals are dosed seven to eight weeks after the surgery. The rats are scanned by dual energy x-ray absorptiometry and sorted into experimental groups based upon femoral bone mineral content (BMC). Three dosages of testing compositions/compounds are administered orally once a day for 4, 8, or 12 weeks and estradiol and testosterone are administered subcutaneously to the reference groups. Animals received subcutaneous injections of fluorochrome markers for bone histomorphometric analysis. Alizarian Red S was prepared as a 3% solution and given at a dose of 30 mg/kg at the time of the baseline scan. Calcein was administered 10 days and 3 days prior to necropsy.\nApproximately 24 hours after the last dose, blood is collected and the gastrocnemius muscle, plantaris muscle, uterus, clitoral glands, clitoris and inguinal fat pads were isolated, blotted and weighed individually. The left femur and lumbar vertebra L5 are wrapped in saline-soaked gauze and stored at −20° C. for biochemical analysis. The right femur and lumbar vertebrae L3-L4 are collected and stored in 70% ethanol for histomorphometry. The right tibia is collected in formalin for histological analysis. The left tibia is collected on dry ice and stored at −20° C. for measurement of alkaline phosphatase activity.\nBMC, bone mineral density (BMD) and bone length are measured by pDEXA on an entire femur. The coefficient of variation for repeated measurement of the isolated femur is less than 0.4% for the BMC and the BMD measurements. […] Serum osteocalcin, a marker for bone turnover, and alkaline phosphatase derived from the tibial periosteum are also measured. Whole femurs are collected for biomechanical analysis and thawed at room temperature prior to testing. Peak load and peak displacement are measured directly from the load cell and the crosshead, respectively. Stiffness is calculated from the slope of the linear region of the load/displacement curve. Lumbar vertebra L5 is also measured in the mechanical testing for bone strength.\nBone histomorphometry is performed to indicate growth of the new bone during the study. The section from the lumbar vertebral bodies is used for histomorphometric indices of cancellous bone, while the sections of the femur mid-shafts are used for histomorphometric indices of cortical bone.\nBody weight, gastrocnemius weight and plantaris weight changes are measured indicating anabolic activity of the testing compositions/compounds on skeletal muscle. Inguinal fat pad weight is used as a representative fat pad to assess the effects of the testing compounds on body fat. Clitoral gland and clitoral weights are measured to assess the virilizing effect of drugs.\nIn the maintenance node of this model, (5R,6S)-6-phenyl-5-[4-(2-pyrrolidin-1-ylethoxy)phenyl]-5,6,7,8-tetrahydronaphthalen-2-ol (Compound 1) was dosed daily at 0 (sham), 0 (OVX), 0.01, 0.05, and 0.25 mg/kg for 8 weeks and 17α-ethynylestradiol was dosed at 0.03 mg/kg/day. […] Micro-computerized tomography (uCT) measured the density and connectivity of the trabecular bone in the femur and pQCT measured at the distal femur.\nIn the restoration mode of this osteopenic female rat model, 4-(2(R)-(1(S)-hydroxyl-2,2,2-trifluoroethyl)-pyrrolidinyl)-2-trifluoromethylbenzonitrile (Compound 2, Formula I, R^1═CF3, R^2═R^3═H) was dosed at 0 (sham), 0 (OVX), 0.03, 0.3, and 3 mg/kg orally for 12 weeks. […] Compound 2 suppressed cancellous bone turnover while increasing trabecular bone volume and increasing bone mineral density at the lumbar spine.\nIn the same experiment of Compound 2, another SARM compound, ostarine, was dosed at 0.03, 0.3, and 3 mg/kg/day orally for 12 weeks."}, "[5]": {"settings": "females, 3 to 500 mg/kg/day for 30 days"}, "[6]": {"settings": "0.03, 0.3, 3 mg/kg orally for 12 weeks"}}, "data": [{"molecule": "N#Cc1ccc(N2CCC[C@@H]2[C@H](O)C(F)(F)F)cc1C(F)(F)F", "note": "[Compound 2, 4-(2(R)-(1(S)-hydroxyl-2,2,2-trifluoroethyl)-pyrrolidinyl)-2-trifluoromethylbenzonitrile]", "values": [{"measurement": "triglycerides", "setting": "[1]; Day 14, 5 to 450 mg/kg/day for 14 days", "value": "without dose dependent changes"}, {"measurement": "serum cholesterol decrease, of the corresponding Day −3 values", "setting": "[1]; Day 14, 5 mg/kg/day for 14 days", "value": 71, "unit": "%"}, {"measurement": "serum cholesterol decrease, of the corresponding Day −3 values", "setting": "[1]; Day 14, 50 mg/kg/day for 14 days", "value": 81, "unit": "%"}, {"measurement": "serum cholesterol decrease, of the corresponding Day −3 values", "setting": "[1]; Day 14, 150 mg/kg/day for 14 days", "value": 79, "unit": "%"}, {"measurement": "serum cholesterol decrease, of the corresponding Day −3 values", "setting": "[1]; Day 14, 450 mg/kg/day for 14 days", "value": 84, "unit": "%"}, {"measurement": "effect on the hypothalamic-pituitary-gonadal axis", "setting": "[1]; female and male monkeys, 3 to 500 mg/kg/day for 30 days", "value": "suppressive effect"}, {"measurement": "serum FSH", "setting": "[1]; [5]", "value": "significantly suppressed"}, {"measurement": "serum estradiol", "setting": "[1]; [5]", "value": "significantly suppressed"}, {"measurement": "serum testosterone", "setting": "[1]; males, lower 75th, 50th, 25th percentile values than vehicle controls, 30 days", "value": "suppressed"}, {"measurement": "serum FSH", "setting": "[1]; sentence follows the male results, 30 days", "value": "not significantly altered"}, {"measurement": "exposure versus dose", "setting": "[2]; 0.03 to 100 mg/kg/day for 14 days, rat", "value": "dose proportional exposure"}, {"measurement": "efficacy (relative to sham) in sex accessory and sebaceous glands", "setting": "[2]; at doses that maintained levator ani weights at sham equivalent levels", "value": "lower efficacy"}, {"measurement": "serum LH", "setting": "[2]; at high doses", "value": "suppressed serum LH below sham-equivalent levels"}, {"measurement": "AUC24", "setting": "[2]; at the dose of 2 mg/kg/day, rat", "value": 0.2}, {"measurement": "activity in musculoskeletal endpoints", "setting": "[2]; restoration mode, 0.03 to 100 mg/kg/day for 14 days", "value": "positive activity"}, {"measurement": "dose reducing the elevated LH levels in castrate rats", "setting": "[2]; restoration mode, 14 days", "value": "≥ 10", "unit": "mg/kg/day"}, {"measurement": "dose that maintained levator ani weight at sham-equivalent levels", "setting": "[2]; restoration mode, 14 days", "value": 2, "unit": "mg/kg/day"}, {"measurement": "tissue selectivity toward the muscle endpoint", "setting": "[2]; restoration mode, 14 days", "value": "tissue selective activity"}, {"measurement": "safety and pharmacokinetic profiles", "setting": "[3]", "value": "favorable safety and pharmacokinetic profiles"}, {"measurement": "activity on the clitoral gland, clitoris or uterus relative to testosterone", "setting": "[4]; 0.3 mg/kg/day dose", "value": "reduced activity"}, {"measurement": "efficacy on muscle and bone compared with testosterone", "setting": "[4]; 0.3 mg/kg/day dose", "value": "more efficacious"}, {"measurement": "bone mineral density at the lumbar spine", "setting": "[4]; [6]", "value": "increasing"}, {"measurement": "cancellous bone turnover", "setting": "[4]; [6]", "value": "suppressed"}, {"measurement": "cortical bone mass, density, strength, stiffness and periosteal bone formation rates", "setting": "[4]; [6]", "value": "significantly increased"}, {"measurement": "gastrocnemius muscle weight, plantaris muscle weight and body weight", "setting": "[4]; [6]", "value": "increased"}, {"measurement": "inguinal fat pad weight", "setting": "[4]; [6]", "value": "without affecting"}, {"measurement": "trabecular bone volume", "setting": "[4]; [6]", "value": "increasing"}]}]}
